Assay [1] deals with gastric mucosal damage induced by ethanolic HCl. The experiment in a line: Gastritis model induced with ethanolic-HCl. In kind it is in vivo, SD male rat. The note with it: po, 1 h, rat; for inhibition in vivo at 0.3 mg/kg: 0.3 mg/kg p.o.; for inhibition in vivo at 1 mg/kg: 1 mg/kg p.o.; for inhibition in vivo at 3 mg/kg: 3 mg/kg p.o. Here is the method:
Effect on the Gastritis Model Induced with Ethanolic-HCl.
SD male rat(250-350 g) was fasted for 24 hours. The compound was orally administered in suspension of 5% HPMC, and after 1 hour 1.5 mL of 150 mM HCl-80% ethanol was orally administered. After 1 hour the rat was sacrifieced and the stomach was extracted and the ulcer index was measured. The ulcer index was shown by the area of hemorrhage lesion(Mizui, T, et al., Jpn. J. Pharmacol. 1983, 33: 939).

The test system of assay [2] is cyclooxygenase. The experiment in a line: Cyclooxygenase activity in HUVEC (PGE2 synthesis). In kind it is cell-based. Here is the method: (§1) Measurment of Cyclooxygenase Actvity
(§2) After addition of the compound to cultured HUVEC, the HUVEC was incubated at 37° C., for 30 minutes, then arachidonic acid (final concentration: 30 .rho.M) was added, and the HUVEC was additionally incubated at 37° C. for 15 minutes. The culture medium was taken, and the activity of cyclooxygenase for 6-Keto-PGF1 α or PGE2 was measured by radioimmunoassay (Mitchell, J. A., et al., Pro. Natl. Acad. Sci. USA 1994, 90: 11693-11697).
**SC200 (μg/mL) : Concentration at increasing generation of […]

The subject of assay [3] is cyclooxygenase. Put plainly: Cyclooxygenase activity in HUVEC (PGF1 α synthesis). It counts as cell-based. Here is the method: as §1, §2
**SC200 (ug/mL) : Concentration at increasing generation of […]

The next assay addresses T1, 5-lipoxygenase (Rattus norvegicus, UniProt P12527).
T1 construct: endogenous in cells; host or cells: casein-elicited rat peritoneal neutrophils
T1 sequence (P12527 1-673): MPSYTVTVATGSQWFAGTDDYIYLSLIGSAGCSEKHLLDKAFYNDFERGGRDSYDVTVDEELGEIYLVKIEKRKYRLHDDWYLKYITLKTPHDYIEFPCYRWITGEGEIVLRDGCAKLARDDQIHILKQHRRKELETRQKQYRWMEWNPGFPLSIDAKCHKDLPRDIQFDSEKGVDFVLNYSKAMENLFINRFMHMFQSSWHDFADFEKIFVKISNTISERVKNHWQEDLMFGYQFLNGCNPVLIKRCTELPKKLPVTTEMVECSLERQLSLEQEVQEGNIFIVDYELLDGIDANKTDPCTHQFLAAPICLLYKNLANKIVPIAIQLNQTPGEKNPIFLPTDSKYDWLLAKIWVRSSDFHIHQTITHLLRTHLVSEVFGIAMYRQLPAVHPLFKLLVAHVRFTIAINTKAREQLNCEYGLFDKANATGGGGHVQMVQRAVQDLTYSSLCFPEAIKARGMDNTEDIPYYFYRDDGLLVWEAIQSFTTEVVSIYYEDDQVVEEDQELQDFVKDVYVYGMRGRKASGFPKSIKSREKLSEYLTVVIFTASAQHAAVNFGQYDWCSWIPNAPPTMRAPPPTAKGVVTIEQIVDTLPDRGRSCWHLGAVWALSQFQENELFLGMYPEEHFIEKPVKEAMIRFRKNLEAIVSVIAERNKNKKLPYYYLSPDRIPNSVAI
Put plainly: 5-lipoxygenase activity (LTB4 in A23187-stimulated peritoneal neutrophils). In kind it is cell-based. Here is the method: Measurement of 5-lipooxygenase Activity
Modified Safayhi et al.'s method (Safayhi, H., et al., Biochem. Pharmacol. 1985, 34: 2691) was used to this experiment. Peritoneal neutrophil was separated from the rat which was treated with casein solution. The compound was added to 10^7 cells (5×10^6 cells/mL, 2 mL) of neutrophil after 2 minutes Ca^2+ -ionophore, A23187 (1 μg/mL) was added and the mixture was incubared at 37° C. for 10 minutes. The reaction mixture was centrifuged and the supermatant was taken up. The amount of LTB4 in the supermatant was measured by radioimmunoassay.

The test system of the next assay is neutrophils. The experiment in a line: Luminol-dependent chemiluminescence of neutrophils induced by FMLP. The note with it: Neutrophil, 1 μM FMLP, 0.07 mM luminol; read-out: IC50, inhibition of chemiluminescence generated by neutrophil activation. In kind it is cell-based. Here is the method:
Measurement of luminol-dependent chemiluminescencei iof neutrophil induced by FMLP.
20 mL of 12% sodium caseinate-0.9% saline was administered intraperitoneally (Newsby, A. C., Biochem. J., 1980, 186: 907,. After 20 hours, the intraperitoneal exudate was extracted under ether anesthesia. The exudate was centrifuged, and erythrocytes were removed by hypotonic lysis, and then neutrophil was washed. Neutrophil was ascertained by Wright's dyeing method, and viability was measured by Trypan blue exclusion test. Chemiluminescence was measured by Topcount (Packard Co.). The suspension of 1.5×10^6 of granulocytes, 1 μM of FMLP, 0.07 mM of luminol and the compound in HBSS was used (Dahlgren, C., et al., Infect. Immun., 1985 47: 326-328).
**IC50 (μg/mL): Concentration of the compound at inhibiting
chemiluminescence generated by neutrophil activation to 50%

A further assay has as its system gastric mucus secretion. Put plainly: Measurement of gastric mucus. It counts as in vivo, SD male rat. The note with it: oral, rat. Here is the method: Measurement of Gastric Mucus
The compound was orally administered into SD male rat (200~250 g). After 1 hour the stomach was extracted. The extracted stomach was immediately washed with 10 mL of cold 0.25M sucrose solution. The gastric mucosa was dyed with 0.1% alcian blue solution for 2 hours. After dyeing, the gastric mucosa was washed with 0.25M sucrose solution twice for 15 minutes and for 45 minutes. The dyed gastric mucosa was treated with 10 mL of 30% dioctyl sodium sulfosuccinate solution for 2 hours to extract dyed mucus completely and optical density of aqueous phase was measured spectrophotometrically at 655 nm. The amount of mucus in the gastric mucosa was shown as the amount of alcian blue after calibration (Kitagawa, H., et al., Drug Res. 1986, 36: 1240-1244).

The subject of assay [4] is chronic gastritis induced with acetic acid. The experiment in a line: Model of chronic gastritis induced with acetic acid. The note with it: once a day for 21 days, rat. It counts as in vivo, SD male rat. Here is the method:
Experiment on the Model of Chronic Gastritis Induced with Acetic Acid
From the next day of the surgical operation, the compound was orally administered once a day for 21 days. After 21 days, the stomach was extracted under ether anesthesis, dipped in 1% formalin solution and the area of gastric lesion was measured. […] An pathological tissue autopsy was carried out for the prepared specimen.

Assay [5] deals with TNBS-induced colitis. The experiment in a line: TNBS-induced colitis model, oral administration. It counts as in vivo, male SD rats. The note with it: for lesion scores: once a day for 13 days, rat; for adhesion degree / dilation and extention degree: score 0-3, rat. Here is the method:
(§3) Experiment on the Model of Inflammatory Bowl Diseases Induced with TNBS
(§4) 7 week-aged male SD rats were fasted for a day, and the rats were put under anesthesia and canula (diameter 3 mm) was inserted into the anus to the depth of 8 cm. 25 mg/mL of TNBS (Trinitrobenzene sulfonic acid) dissolved in 50% ethanol solution was injected to each rat and the rats were positioned at feature of tail up for 1 minute. The solution flowing out was removed and the rats were once washed with 1.5 mL of saline solution. After colitis was induced, the compound was administered orally or intracolonically once a day for 13 days. For control, mesalazine (5-amino salicylic acid) was used for oral administration and prednisolone was used for rectal administration. At 14th day of experiment, each group of the rats were put under ether anesthesis, the colon was extracted and the degree of adhesion and extension of the large intestine were measured and their lesion scores were recorded. After 1% formalin solution was injected to the cavity of the extracted colon to inflate, the both ends of it were bonded with each other and it was all-fixed in 1% formalin solution for 2 hours. The all-fixed colon was cut to lengthy direction and washed to remove surrounding fat tissues and connective fissaes. After cecum was removed, the weight of the colon and the rectum was measured, and the area of ulcer lesion, and microscopic lesion were measured to mark scores according to the criterion. And they were fixed in 10% neutral formalin solution, and the tissue examination of lesion site was performed by general method to mark scores according to the criterion.
Clinical symptoms: Daily, we observed clinical symptoms and survival of the animals. And we measured the weight of the animals at the beginning day, third and eighth day of the experiment.
(0: non-adhesion, 1: adhesion exists but easily taken off by gloved hand, 2: more severe adhesion than 1 exists but easily taken off by scissors, 3: very severe adhesion exists, so it is difficult to be taken off by scissors because of possibility of its perforation.)
Degree of thickening and extension of the large intestine: We marked scores of the degree of thickness and extension of the large intestine according to the criterion, following the method of Kim et al., and compared with the average value of each group.
(0: lesion site non-existing, 1: a few degree of lesion, 2: intermediate degree of lesion, 3: severe degree of lesion)
We scored the lesion examined with the naked eye and compared the average value of each group. The standards of lesion scores as criterion of the damage of the colon by Wallace's method is as followings.
(§5) (0: normal, non-damaged, 1: congestion without ulcer 2: congestion and thickening of intestinal wall without ulcer, 3: an ulcer lesion without thickening of intestinal wall, 4: more than two ulcerous/inflammatory lesion, 5: more than two ulcerous/inflammatory lesion or the length of ulcerous/inflammatory lesion is more than 1 cm, 6-10: when the length of lesion is over 2 cm, one point increases everytime 1 cm of the length of ulcerous/inflammatory increases, for example, when the ulcer length is 3 cm, the point is 7.)
Microscopic evaluation: We trimmed the colon giving 3 cm interval from the rectum to the cecum, including the site of lesion examined with the naked eye, to make at least 4 specimens per an individual. […] When the lesion can not be examined with the naked eye, we trimmed the other specimen which has the lesion, with 3 cm interval.

Assay [6] has as its system TNBS-induced colitis. Put plainly: TNBS-induced colitis model, intracolonic (rectal) administration. The note with it: once a day for 13 days, rat. It counts as in vivo, male SD rats. Here is the method:
as §3
as §4, with “The modified method of Shibata et al. (Dig. Endosc. 1993, 5: 13) was used. 7” for “7”
Macroscopic evaluation: We measured the number and the width of the ulcer and lesion area formed in the large intestine, by using modified Wallace's method (Can. J. Physiol. Pharmacol., 1988, 66: 422). We scored the lesion examined with the naked eye and compared the average value of each group. The standards of lesion scores as criterion of the damage of the colon by Wallace's method is as followings.
as §5

Values after ≈ are worked out from the molar mass of the structure shown.

As usually defined, the inhibition in vivo is the relative decrease from the control value, in per cent. Read a low inhibition in vivo as a response near the control. In [1], `COc1ccc(C2CC(=O)c3c(cc(O)c(OC)c3O)O2)cc1OC` (stereo not drawn) [5,7-dihydroxy-3',4',6-trimethoxy flavanone] yielded an inhibition in vivo at 0.3 mg/kg of 5%, an inhibition in vivo at 1 mg/kg of 49% and an inhibition in vivo at 3 mg/kg of 56%. Moreover, the “SC200, concentration increasing generation of PGE2 to 200%” value with cyclooxygenase [2] is 3.9 µg/mL. Also, in the assay on cyclooxygenase [3], the “SC200, concentration increasing generation of PGF1α to 200%” value came to 34.6 µg/mL.

Usually IC50 stands for the concentration that inhibits the measured activity by half. With `COc1ccc(-c2cc(=O)c3c(O)c(OC)c(O)cc3o2)cc1OC` [5,7-dihydroxy-3',4',6-trimethoxy flavone], the IC50 was 13.1 µM against 5-lipoxygenase and 0.463 µg/mL (≈ 1.34 µM) with neutrophils. The compound also yielded an inhibition in vivo at 0.3 mg/kg in [1] of 58%. In assay [1], this compound gave an inhibition in vivo at 1 mg/kg of 64%. The same compound showed an inhibition in vivo at 3 mg/kg in assay [1] of 80%. Moreover, the “SC200, concentration increasing generation of PGE2 to 200%” value with cyclooxygenase [2] stood at 2.4 µg/mL. Besides, the “SC200, concentration increasing generation of PGF1α to 200%” value in the assay with cyclooxygenase [3] was 3.4 µg/mL. Also, the “gastric mucus secretion, % Control” value in the assay with gastric mucus secretion (0.3 mg/kg) is listed as 132.2 % Control; in the assay on gastric mucus secretion (3 mg/kg), 130.7 % Control; in the assay with gastric mucus secretion (30 mg/kg), 116.8 % Control.

For the compound `COc1ccc(-c2cc(=O)c3c(OC)c(OC)c(OCC(=O)[O-])cc3o2)cc1OC.[Na+]` [7-carboxymethyloxy-3',4',5,6-tetramethoxy flavone sodium salt], the “inhibiting% (gastric lesion)” value is on record as 10% in [4] (0.3 mg/kg p.o.), 29% in [4] (3 mg/kg p.o.) and 42% in assay [4] (10 mg/kg p.o.). Further, the lesion scores is recorded as 1.3 in the assay on TNBS-induced colitis [5] (1 mg/kg p.o.), 0.8 with TNBS-induced colitis [5] (10 mg/kg p.o.), 2.56 in the assay with TNBS-induced colitis [6] (0.3 mg/kg rectally) and 2.60 in the assay on TNBS-induced colitis [6] (3 mg/kg rectally). The adhesion degree in the assay on TNBS-induced colitis [5] (1 mg/kg p.o.) worked out at 0.5; in the assay on TNBS-induced colitis [5] (10 mg/kg p.o.), 0.6. For the same compound, the “dilation and extention degree” value was 0.3 with TNBS-induced colitis [5] (1 mg/kg p.o.) and 0.4 with TNBS-induced colitis [5] (10 mg/kg p.o.).

Consider `COc1ccc(-c2cc(=O)c3c(OC)c(OC)c(OCC(=O)O)cc3o2)cc1OC` [7-carboxymethyloxy-3',4',5,6-tetramethoxy flavone], for which the IC50 was 140 µM on 5-lipoxygenase and 1.57 µg/mL (≈ 3.77 µM) with neutrophils. Also, the inhibition in vivo at 0.3 mg/kg in [1] was found to be 54%. In assay [1], this compound returned an inhibition in vivo at 1 mg/kg of 77%. In assay [1], the inhibition in vivo at 3 mg/kg was 84%. The “SC200, concentration increasing generation of PGE2 to 200%” value in the assay on cyclooxygenase [2] was 15.76 µg/mL. For the same compound, the “SC200, concentration increasing generation of PGF1α to 200%” value in the assay on cyclooxygenase [3] stood at 11.09 µg/mL. Further, the “gastric mucus secretion, % Control” value was 120 % Control with gastric mucus secretion (0.3 mg/kg), 130 % Control with gastric mucus secretion (3 mg/kg) and 139 % Control with gastric mucus secretion (30 mg/kg).

The values are drawn from patent US6025387A, “Gastroprotective flavone/flavanone compounds with therapeutic effect on inflammatory bowel disease” (Dong a Pharmaceutical Co., Ltd., priority 1996, dated 2000).
